The numbers were not newly measured in patent publication US20160279124A1, “Method for Treating Addiction” (priority 2015, published 2016), which cites them from elsewhere.

This data set has as its system opioid use. As to conditions: clinic and office based medical detox and Naltrexone treatment: pill, injectable and implant; for opioid use.

Consider `O=C1CC[C@@]2(O)[C@H]3Cc4ccc(O)c5c4[C@@]2(CCN3CC2CC2)[C@H]1O5` [Naltrexone], for which the Success is recorded as 8% for.
